In brackets after ≈: the same amount, converted by molar mass. Where two headings read alike, the source gives them in different places.
Columns and labels:
Assay in all cases: CLSI broth dilution MIC determination
Assay type in all cases: cell-based
A. baumannii ATCC 19606 = tested on: A. baumannii ATCC 19606
[1] = tested on: A. baumannii imipenem-resistant
K. pneumoniae KPC-2 = tested on: K. pneumoniae KPC-2
E. faecalis ATCC 29212 = tested on: E. faecalis ATCC 29212
A. baumannii IMP-4 = tested on: A. baumannii IMP-4
[2] = tested on: E. faecalis Vancomycin-resistant; conditions: E. faecalis Vancomycin-resistant; Gram-positive
K. pneumoniae ATCC 10031 = tested on: K. pneumoniae ATCC 10031
E. coli TEM-1 = tested on: E. coli TEM-1
How it was run: (§1)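 Minimum inhibitory concentrations come from CLSI-standard broth dilution. The panel emphasises macrolide-resistance mechanisms, whose genotypes can be constitutive or inducible.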

S. aureus ATCC 29213 = tested on: S. aureus ATCC 29213
How it was run: as §1

S. aureus MRSA: USA100 = tested on: S. aureus MRSA: USA100
How it was run: as §1

S. aureus USA600, GISA = tested on: S. aureus USA600, GISA
How it was run: as §1

[3] = tested on: S. pneumoniae erm B + tet(M,O) genotype; conditions: Streptococcus pneumoniae
How it was run: as §1

[4] = tested on: S. pneumoniae erm B + mef A genotype
How it was run: as §1

H. influenzae ATCC49247 = tested on: H. influenzae ATCC49247
How it was run: as §1

S. aureus MRSA: USA300 = tested on: S. aureus MRSA: USA300
How it was run: as §1

S. pneumoniae ATCC 49619 = conditions: S. pneumoniae ATCC 49619; Gram-positive
How it was run: as §1

E. coli NDM-1 = tested on: E. coli NDM-1
How it was run: as §1

E. coli ATCC 25922 = tested on: E. coli ATCC 25922
How it was run: as §1

[5] = tested on: S. pneumoniae mef A genotype (second strain so labelled)
How it was run: as §1

K. pneumoniae TEM-10 = tested on: K. pneumoniae TEM-10
E. coli CTX-M-14 = tested on: E. coli CTX-M-14
How it was run: as §1

S. aureus erm A genotype = tested on: S. aureus erm A genotype
How it was run: as §1

[6] = tested on: P. aeruginosa HPA101-1477
K. pneumoniae SHV-12 = tested on: K. pneumoniae SHV-12
S. pyogenes ATCC 19615 = conditions: S. pyogenes ATCC 19615; Gram-positive
[7] = tested on: S. pyogenes Macrolide-resistant; conditions: S. pyogenes Macrolide-resistant; Gram-positive
[8] = tested on: H. influenzae Erythro >4, Azithro 1
Text: MIC data was collected for the novel macrolides that this platform has produced against over 21 unique strains of B. subtilis, E. coli, S. aureus, S. pneumoniae, and H. influenzae, including several multidrug-resistant strains, with a special focus on macrolide resistant mechanisms (vide supra). […] CLSI standard procedures for broth dilution MIC determination were used. […] These genotypes can be constitutive or inducible.

P. aeruginosa ATCC 27853 = tested on: P. aeruginosa ATCC 27853
[9] = tested on: A. baumannii chromosomal class C
[10] = Acinetobacter baumannii, read-out: MIC
[11] = Haemophilus influenzae, read-out: MIC

SMILES: CC[C@H]1OC(=O)[C@@](C)(F)C(=O)[C@H](C)[C@@H](OC2OC(C)CC(N(C)C)C2O)[C@](C)(OC)C[C@@H](C)C(=O)[C@H](C)[C@H]2N(CCCCn3cc(-c4cccc(N)c4)nn3)C(=O)O[C@]12C (stereo partly shown) [Solithro, solithromycin, reference compound]
- MIC (A. baumannii ATCC 19606; A. baumannii ATCC 19606, Gram-negative): 8 µg/mL (≈ 9.47 µM)
- MIC (A. baumannii ATCC 19606; Acinetobacter baumannii, ATCC19606, A. baumannii ATCC 19606 (MP-15), read-out: MIC): 8 µg/mL (≈ 9.47 µM)
- MIC [1, 10]: 4 µg/mL (≈ 4.73 µM)
- MIC ([1]; Gram-negative): 4 µg/mL (≈ 4.73 µM)
- MIC (K. pneumoniae KPC-2; Gram-negative): > 32 µg/mL
- MIC (K. pneumoniae KPC-2; Klebsiella pneumoniae, KPC2, read-out: MIC): > 32 µg/mL
- MIC (E. faecalis ATCC 29212; E. faecalis ATCC 29212 (MP-24)): 0.03 µg/mL (≈ 0.0355 µM)
- MIC (E. faecalis ATCC 29212; E. faecalis ATCC 29212, Gram-positive): < 0.0312 µg/mL
- MIC (E. faecalis ATCC 29212; Enterococcus faecalis, ATCC29212, E. faecalis ATCC 29212 (MP-24), read-out: MIC): < 0.0312 µg/mL
- MIC (A. baumannii IMP-4; Acinetobacter baumannii, IMP4, read-out: MIC): > 32 µg/mL
- MIC (A. baumannii IMP-4; Gram-negative): > 32 µg/mL
- MIC [2]: 32 µg/mL (≈ 37.9 µM)
- MIC (K. pneumoniae ATCC 10031; K. pneumoniae ATCC 10031 (MP-14)): 4 µg/mL (≈ 4.73 µM)
- MIC (K. pneumoniae ATCC 10031; K. pneumoniae ATCC 10031, Gram-negative): 8 µg/mL (≈ 9.47 µM)
- MIC (K. pneumoniae ATCC 10031; Klebsiella pneumoniae, ATCC10031, K. pneumoniae ATCC 10031 (MP-14), read-out: MIC): 8 µg/mL (≈ 9.47 µM)
- MIC (E. coli TEM-1; E. coli TEM-1, Gram-negative): 32 µg/mL (≈ 37.9 µM)
- MIC (E. coli TEM-1; Escherichia coli, TEM1): 32 µg/mL (≈ 37.9 µM)
- MIC (S. aureus ATCC 29213; S. aureus ATCC 29213, Gram-positive): 0.125 µg/mL (≈ 0.148 µM)
- MIC (S. aureus ATCC 29213; Staphylococcus aureus, ATCC29213): 0.125 µg/mL (≈ 0.148 µM)
- MIC (S. aureus MRSA: USA100; S. aureus MRSA: USA100, Gram-positive): > 32 µg/mL
- MIC (S. aureus MRSA: USA100; Staphylococcus aureus, S. aureus MRSA: USA100 (MP-618 UNT-096), read-out: MIC): > 32 µg/mL
- MIC (S. aureus USA600, GISA; S. aureus USA600, GISA, Gram-positive): > 32 µg/mL
- MIC (S. aureus USA600, GISA; Staphylococcus aureus, S. aureus USA600, GISA (MP-619 UNT-120), read-out: MIC): > 32 µg/mL
- MIC [3]: < 0.0312 µg/mL
- MIC ([4]; S. pneumoniae erm B + mef A genotype, Gram-positive): 0.25 µg/mL
- MIC ([4]; Streptococcus pneumoniae): 0.25 µg/mL (≈ 0.296 µM)
- MIC (H. influenzae ATCC49247; Gram-negative): 4 µg/mL (≈ 4.73 µM)
- MIC (H. influenzae ATCC49247; [11]): 4 µg/mL (≈ 4.73 µM)
- MIC (S. aureus MRSA: USA300; S. aureus MRSA: USA300, Gram-positive): 1 µg/mL (≈ 1.18 µM)
- MIC (S. aureus MRSA: USA300; Staphylococcus aureus, S. aureus MRSA: USA300 (MP-549, msr(a))): 0.125 µg/mL (≈ 0.148 µM)
- MIC (S. aureus MRSA: USA300; Staphylococcus aureus, S. aureus MRSA: USA300 (MP-549, msr(a)), read-out: MIC): 1 µg/mL (≈ 1.18 µM)
- MIC (S. pneumoniae ATCC 49619): < 0.0312 µg/mL
- MIC (E. coli NDM-1; Escherichia coli, NDM1, read-out: MIC): > 32 µg/mL
- MIC (E. coli NDM-1; Gram-negative): > 32 µg/mL
- MIC (E. coli ATCC 25922; E. coli ATCC 25922 (MP-4)): 16 µg/mL (≈ 18.9 µM)
- MIC (E. coli ATCC 25922; E. coli ATCC 25922, Gram-negative): 32 µg/mL (≈ 37.9 µM)
- MIC (E. coli ATCC 25922; Escherichia coli, ATCC25922, E. coli ATCC 25922 (MP-4), read-out: MIC): 32 µg/mL (≈ 37.9 µM)
- MIC ([5]; Gram-positive): 0.125 µg/mL (≈ 0.148 µM)
- MIC ([5]; Streptococcus pneumoniae, second strain (MP-627 UNT-039)): 0.125 µg/mL (≈ 0.148 µM)
- MIC ([5]; Streptococcus pneumoniae, second strain (MP-627 UNT-039), read-out: MIC): < 0.015 µg/mL
- MIC (K. pneumoniae TEM-10; Gram-negative): > 32 µg/mL
- MIC (K. pneumoniae TEM-10; Klebsiella pneumoniae, TEM10, read-out: MIC): > 32 µg/mL
- MIC (E. coli CTX-M-14; Escherichia coli, CTXM14, read-out: MIC): > 32 µg/mL
- MIC (E. coli CTX-M-14; Gram-negative): > 32 µg/mL
- MIC (S. aureus erm A genotype; S. aureus erm A genotype, Gram-positive): > 32 µg/mL
- MIC (S. aureus erm A genotype; Staphylococcus aureus, S. aureus erm A genotype (MP-620 UNT-146), read-out: MIC): > 32 µg/mL
- MIC ([6]; Gram-negative): > 32 µg/mL
- MIC ([6]; Pseudomonas aeruginosa, HPA1011477, read-out: MIC): > 32 µg/mL
- MIC (K. pneumoniae SHV-12; Gram-negative): > 32 µg/mL
- MIC (K. pneumoniae SHV-12; Klebsiella pneumoniae, SHV12, read-out: MIC): > 32 µg/mL
- MIC (S. pyogenes ATCC 19615): < 0.0312 µg/mL
- MIC [7]: 0.0625 µg/mL (≈ 0.074 µM)
- MIC ([8]; H. influenzae Erythro >4, Azithro 1, Gram-negative): 2 µg/mL (≈ 2.37 µM)
- MIC [8, 11]: 2 µg/mL (≈ 2.37 µM)
- MIC (P. aeruginosa ATCC 27853; P. aeruginosa ATCC 27853, Gram-negative): > 32 µg/mL
- MIC (P. aeruginosa ATCC 27853; Pseudomonas aeruginosa, ATCC27853, P. aeruginosa ATCC 27853 (MP-3), read-out: MIC): > 32 µg/mL
- MIC [9, 10]: 8 µg/mL (≈ 9.47 µM)
- MIC ([9]; Gram-negative): 8 µg/mL (≈ 9.47 µM)
